Test results reported in patent US20170296629A1, “INHIBITOR OF EXTRACELLULAR TRAP FORMATION IN LEUKOCYTE” (KEIO UNIVERSITY, priority 2014, published 2017).
Ends that are not written are not given here.

Tested on: Healthy Individual's Peripheral Blood Neutrophil
Experiment: Inhibition of NET formation in neutrophils pretreated with lactoferrin-derived peptide fragment; DNA concentration in culture supernatant (Picogreen)
Assay type: cell-based
Settings: human neutrophils, pretreatment with peptide
Procedure: Effect of Inhibiting NET Formation Stimulation of Healthy Individual's Peripheral Blood Neutrophil by Pretreatment with Lactoferrin-derived Peptide Fragment
For each round of experiment, 15 ml to 20 ml of peripheral blood was collected from a healthy individual by using an EDTA-containing syringe (with a needle of 18 to 22 G). After collecting the blood, in a 15 ml conical tube charged with 3 ml of Mono-Poly Resolving Medium (Cat No. DSBN100, DS Pharma Biochemical Co., Ltd.), 3.5 ml of the whole blood was gently layered over a lower layer of Mono-Poly Resolving Medium. The resultant 15 ml conical tube was centrifuged with a swing centrifuge at room temperature (15 to 30° C.) at 400×g for 20 minutes, and the conical tube was then gently taken out. An uppermost brown plasma layer and a lymphocyte/monocyte layer thereunder were removed with an aspirator or the like. In addition, a transparent layer under the lymphocyte/monocyte layer was removed as much as possible. A pale pink layer under the transparent layer was taken out with a Pasteur pipette, and transferred, for washing neutrophils, to a test tube charged with phosphate buffered saline (PBS(−); 137 mM of sodium chloride, 2.7 mM of potassium chloride, 8.1 mM of disodium hydrogen phosphate dodecahydrate, and 1.47 mM of potassium dihydrogen phosphate). The test tube thus holding the neutrophils was centrifuged at room temperature (15 to 30° C.) at 200×g for 10 minutes. The test tube was taken out, and a supernatant was discarded. To the neutrophils held in the test tube, sterile water at 4° C. was added, and the resultant was allowed to stand still on ice for 30 seconds for hemolyzing erythrocytes mixed therein. After the hemolysis, 45 ml of PBS(−) was added thereto, and the resultant was centrifuged at 200×g for 10 minutes. […]
A culture supernatant was collected, centrifuged at 200×g for 10 minutes, and the thus obtained supernatant was transferred to a fresh microcentrifuge tube. The amount of DNA was measured by using Picogreen dsDNA assay reagent (P11496 Invitrogen) in accordance with the accompanying protocol.

Substance | inhibition of the NET (FIG. 2) (FIG. 2) | inhibition of the NET formation, dependence on amount (FIG. 3)
SEQ ID NO: 6: Bovine lactoferricin; basic peptide obtained by pepsin hydrolysis of bovine lactoferrin, also prepared by PH Japan (MFKCRRWQWRMKKLGAPSITCVRRAF; ends and bridges not checked; cysteine pairing not given here; listed as Bos taurus) | found to have the inhibiting effect | inhibited the NET formation in a volume-dependent manner
SEQ ID NO: 7: Human lactoferricin, basic peptide prepared by PH Japan (GRRRRSVQWCAVSQPEATKCFQWQRNMRKVRGPPVSCIKRDSPIQCIQA; listed as Homo sapiens) | – | inhibited the NET formation in a volume-dependent manner
